The values below come from patent US9821000B2, “Compounds, compositions and corresponding uses for preventing and/or treating of dyslipidemia” (CENTRE NATIONAL DE LA RECHERCHE SCIENTIFIQUE (CNRS), priority 2013, dated 2017).

Assay [1] has as its system hem1Δ yeasts. Put plainly: Restoration of growth of lipo-intoxicated hem1Δ yeasts (drop test on agar). Format: cell-based, Saccharomyces cerevisiae. To be noted: SFA accumulation conditions; 5 μl drops on agar; after three days. How it is done:
FIG. 3B—The hem1Δ yeasts were cultivated in conditions of SFA accumulation as indicated. 5 μl drops of OAG, LPA and oleic acid in the concentrations indicated were then deposited on the surface of the agar medium. The restoration of growth of the hem1Δ yeasts is observed in the formation of colonies after three days.
The strain carrying the hem1Δ strain is cultivated, under aerobic conditions, under stirring and at 28° C., in a YPG^A liquid medium (YPG (yeast extract 1% (m/v), peptone 1% (m/v) and glucose 2% (m/v)) supplemented with δ-aminolevulinic acid (ALA) at 80 μg/mL). Lipotoxicity by saturated fatty acids (SFA) is prompted by depletion of unsaturated fatty acids (UFA)—the synthesis of which is dependent on the presence of haem (prosthetic grouping of the enzyme Ole1p especially)—by transfer into YPG^+ medium (YPG supplemented with ergosterol at 80 μg/mL to compensate for the depletion in sterol obtained under these conditions). The lipotoxicity can be induced in a solid medium YPG^++agar 2% (m/v) in transferring 3500 cells (hem1Δ coming from a pre-culture in YPG^A)/cm^2 or *alternatively in a liquid medium in inoculating 2·10^6 cells/mL of YPG^+. Classically, the effects of lipotoxicity on SFA are analyzed 7 h after the transfer into YPG^+ medium. The capacity of a compound to counter the deleterious effects of lipotoxicity with SFA is for its part evaluated successively with the addition of this compound on (or in) the YPG^+ transfer medium after seeding with cells.
1) Screening of compounds: Following the induction of lipotoxicity with SFA (for hem1Δ cultivated in a solid medium), 5 μL drops of solutions of different compounds at 10 mM in dimethylsulfoxide (DMSO) or in ethanol (EtOH) are deposited on the surface of agar. The capacity of a compound to counter the lipo-induced stoppage of cell growth is estimated by the appearance of a halo of hem1Δ colonies at the position of the deposit of said compound after three days of culture at 28° C. (cf. Deguil et al., 2011).

Assay [2] concerns UPR response. The experiment in a line: UPR triggering test (4xUPRE-LacZ reporter, β-galactosidase activity) in hem1Δ yeast. It is filed as cell-based, Saccharomyces cerevisiae. Conditions: hem1Δ in liquid medium inducing SFA accumulation, 200 μM compound. The text has this: A plasmidic construction carrying a fusion gene, corresponding to the encoding sequence of the gene LacZ placed under dependence of an artificial promoter containing four UPR elements (UPRE) was introduced into a hem1Δf yeast strain, as described in Pineau et al. (2009). During an induction of the UPR response, the Hac1p/XBP1p transcription is activated and gets fixed on the UPR elements of the fusion gene, leading to the transcription of the LacZ gene. With LacZ encoding β-galactosidase, the level of induction of UPR is measured to detect the corresponding enzyme activity. The hem1Δ yeast strain was cultivated in a liquid medium inducing the accumulation of SFA without other addition (Ø), or in the same medium supplemented with 200 μM of oleic acid, OAG or LPA as indicated. A.U.: arbitrary units.
The hem1Δ strain transformed by the plasmid pPW344 [2 μ URA34×UPRE-LacZ (Patil et al., 2004)] is cultivated in liquid medium YPG^A, YPG or YPG+200 μM of compound to be tested in aerobic conditions, under stirring and at 28° C. for 7 h, starting from an initial cell concentration of 2·10^6 cells/mL. At the end of the culture, 10^8 cells are collected in order to quantify the beta-galactosidase (β-gal) activity resulting from the expression of the LacZ trans gene (in the case of a triggering of UPR). […]

In assay [3] the test system is eIF2α. The experiment in a line: Western blotting of eIF2α phosphorylation (UPR) in BRIN-BD11 cells. Conditions: BRIN-BD11, palmitic acid 200 μM. It is filed as cell-based, rat. The method, then: The BRIN-BD11 pancreatic β-cells were cultivated in controlled conditions or in the presence of an exogenous source of saturated fatty acids (palmitic acid 200 μM), as described by Dhayal& Morgan (2011) in order to generate conditions of lipotoxicity with or without addition of OAG or LPA.
FIG. 7B—The rates of phosphorylation of eIF2α were also analyzed under different conditions by Western blotting method, in the absence (Ø) or in the presence of OAG or LPA and normalized with quantities of total eIF2α. […] A.U.: arbitrary units.
The cells BRIN-BD11 are seeded at a density of 0.5×10^5 cells/mL in T25 flasks for 24 h. As indicated here above, the complete medium is then replaced by an equivalent devoid of FCS but containing the lipid reagents of interest. […] In a second stage, the membranes are stripped with the buffer Re-Blot Plus-Strong (Millipore) and then probed a second time with total anti-eIF2α antibodies (CellSignalling (New EnglandBiolabs) diluted to 1/1000th. The analysis by densitometry of the relative abundance of the phosphorylated and non-phosphorylated forms of the protein eIF2α is done with the Fluor-S Multi-imager analysis system combined with the software program Quantify One (Biorad UK Ltd).
In general terms: In western blotting, separated proteins are transferred to a membrane and probed.

Entries after “also recorded” stand apart in the source; their conditions may differ.

`CCCCCCCC/C=C\CCCCCCCC(=O)OC[C@@H](O)COP(=O)(O)O` [LPA, 1-oleoyl-sn-glycerol-3-phosphate]: in assay [1], the “restoration of growth of lipo-intoxicated hem1Δ yeasts (formation of colonies)” value was “restore the growth”. Further, in assay [2], the “UPR response in lipo-intoxicated yeasts (β-galactosidase activity)” value is “reduce the UPR response”. The “UPR induction (rate of phosphorylation of eIF2α normalized to total eIF2α)” value in assay [3] was “reducing the induction rate of UPR”.
`CCCCCCCC/C=C\CCCCCCCC(=O)OC[C@H](CO)OC(C)=O` [OAG, 1-oleoyl-2-acetyl-sn-glycerol]: in assay [1], the “restoration of growth of lipo-intoxicated hem1Δ yeasts (formation of colonies)” value is listed as “restore the growth”. For the same compound, the “UPR response in lipo-intoxicated yeasts (β-galactosidase activity)” value in assay [2] is “reduce the UPR response”. In addition, the “UPR induction (rate of phosphorylation of eIF2α normalized to total eIF2α)” value in assay [3] is on record as “reducing the induction rate of UPR; also recorded: reduces the UPR”.
